How the values were obtained:
Assay type in all cases: cell-based
[1] = molecular target: PI 3-kinase delta (Homo sapiens (Human), UniProt O00329); assay: Cellular p-Akt (S473) SureFire assay, Rat-1_PI3Kdelta cells (Assay J); settings: p-AKT (Ser473) in Rat-1 cells expressing myr-HA-hp110 delta, 1 h compound; read-out: Assay J PI3Kδ IC50
Text: (§1) Cellular Assays for PI 3-Kinase Alpha (H), Beta (I) and Delta (J)
(§2) AlphaScreen (Amplified Luminescent Proximity Homogeneous Assay, ALPHA, Perkin Elmer) is a non-radioactive bead-based proximity assay technology to study biomolecular interactions in a homogenous microtiter plate format. The brand name SureFire denotes AlphaScreen assays that are adapted to quantify the phosphorylation of endogenous cellular proteins in cell lysates, by using matched antibody pairs, which consist of an anti-phospho-kinase and an anti-kinase antibody. The assay allows characterization of kinase signaling in cells as well as measurement of kinase inhibitor effects.
(§3) Rat-1 cell lines stably overexpressing activated PI 3-kinase class I isoforms Rat-1 pBABEpuro Myr-HA-hp110 delta clone 5 (Rat-1_PI3Kdelta) and Rat-1 pBABEpuro Myr-HA-hp110 alpha clone 6 (Rat-1_PI3Kalpha) and Rat-1 pBABEpuro Myr-HA-hp110 beta (Rat-1_PI3beta) were cultivated in complete growth medium (DMEM high glucose, 10% (v/v) fetal bovine serum, 1% (v/v) MEM NEAA, 10 mM HEPES, 2 mM L-glutamine, puromycin (10 μg/mL for Rat-1_PI3Kdelta and Rat-1_PI3Kalpha, 4 ug/mL for Rat-1_PI3beta), 1% (v/v) Pen/Strep) to 90% confluency at 37° C./5% CO2/90% humidity in a humidified CO2 incubator and were split twice a week. The following materials were used for p-AKT(5473) detection in Rat-1 cell lysates: Dulbecco's modified Eagle's medium (DMEM) high glucose (Gibco Invitrogen, Basel, Switzerland, Cat. No. 41965), heat inactivated fetal bovine serum, qualified (HI FBS; Gibco Invitrogen, Basel, Switzerland, Lot. No. 16140), MEM non essential amino acids (NEAA; Gibco Invitrogen, Basel, Switzerland, Cat. No. 11140), HEPES (Gibco Invitrogen, Basel, Switzerland, Cat. No. 15630), penicillin/streptomycin (Pen/Strep, 100×; Gibco Invitrogen, Basel, Switzerland, Cat. No. 15140-122), L-glutamine (Gibco Invitrogen, Basel, Switzerland, Cat. No. 25030), puromycin (Sigma Aldrich, Buchs, Switzerland, Cat. No. P9620), DMSO (MERCK, Dietikon, Switzerland, Cat. No. 8.02912.2500), H2O, MilliQ-H2O unless otherwise stated (MILLIPORE QGARDOOR1, Millipore, Zug, Switzerland), bovine serum albumine (BSA; Sigma Aldrich, Buchs, Switzerland Cat. No. A8412), SureFire p-Akt 1/2 (Ser473) Assay Kit (Perkin Elmer, Schwerzenbach, Switzerland, Cat. No. TGRAS50K).
(§4) The p-Akt (S473) SureFire assay measures the phosphorylation of endogenous cellular Akt 1/2 at Ser473 in cell lysates. Using Rat-1 cells stably expressing myr-HA-tagged versions of the human PI3Kdelta, PI3Kalpha, or PI3Kbeta p110 catalytic subunit isoforms, the assay was developed as a two-plate protocol in a 384-well format.
(§5) For compound testing, the cells were seeded at a density of 4000 (Rat-1_PI3Kdelta), 7500 (Rat-1_PI3Kalpha), or 6200 (Rat-1_PI3Kbeta) cells in 20 μl complete growth medium into cell culture treated 384-well plates and were grown at 37° C./5% CO2/90% humidity for 24 h. Shortly before compound transfer, the complete medium was removed, 30 μl assay buffer (DMEM high glucose, 1×MEM NEAA, 10 mM HEPES, 2 mM L-glutamine, 0.1% (w/v) BSA) was added and 10 μl of the compound predilutions were transferred to the cells. After treatment with compound for 1 h, the cells were lysed by the addition of 20 μl lysis buffer supplemented with 0.24% (w/v) BSA. Detection of p-AKT (Ser473) was performed with the SureFire p-Akt 1/2 (Ser473) Assay Kit according to the manufacturer's instructions using 5 ul of cell lysate in a total detection volume of 12 μl.
(§6) IC50 values of the percentage inhibition of each compound at 8 concentrations (usually 10, 3.0, 1.0, 0.3, 0.1, 0.030, 0.010 and 0.003 μM) n=2 were derived by fitting a sigmoidal dose-response curve to a plot of assay readout over inhibitor concentration as described. All fits were performed with the program XLfit4 (ID Business Solutions, Guildford, UK).

[2] = molecular target: PI 3-kinase alpha (Homo sapiens (Human), UniProt P42336); assay: Cellular p-Akt (S473) SureFire assay, Rat-1_PI3Kalpha cells (Assay H); settings: p-AKT (Ser473) in Rat-1 cells expressing myr-HA-hp110 alpha, 1 h compound; read-out: Assay H PI3Kα IC50
PI 3-kinase alpha, sequence (P42336 whole entry): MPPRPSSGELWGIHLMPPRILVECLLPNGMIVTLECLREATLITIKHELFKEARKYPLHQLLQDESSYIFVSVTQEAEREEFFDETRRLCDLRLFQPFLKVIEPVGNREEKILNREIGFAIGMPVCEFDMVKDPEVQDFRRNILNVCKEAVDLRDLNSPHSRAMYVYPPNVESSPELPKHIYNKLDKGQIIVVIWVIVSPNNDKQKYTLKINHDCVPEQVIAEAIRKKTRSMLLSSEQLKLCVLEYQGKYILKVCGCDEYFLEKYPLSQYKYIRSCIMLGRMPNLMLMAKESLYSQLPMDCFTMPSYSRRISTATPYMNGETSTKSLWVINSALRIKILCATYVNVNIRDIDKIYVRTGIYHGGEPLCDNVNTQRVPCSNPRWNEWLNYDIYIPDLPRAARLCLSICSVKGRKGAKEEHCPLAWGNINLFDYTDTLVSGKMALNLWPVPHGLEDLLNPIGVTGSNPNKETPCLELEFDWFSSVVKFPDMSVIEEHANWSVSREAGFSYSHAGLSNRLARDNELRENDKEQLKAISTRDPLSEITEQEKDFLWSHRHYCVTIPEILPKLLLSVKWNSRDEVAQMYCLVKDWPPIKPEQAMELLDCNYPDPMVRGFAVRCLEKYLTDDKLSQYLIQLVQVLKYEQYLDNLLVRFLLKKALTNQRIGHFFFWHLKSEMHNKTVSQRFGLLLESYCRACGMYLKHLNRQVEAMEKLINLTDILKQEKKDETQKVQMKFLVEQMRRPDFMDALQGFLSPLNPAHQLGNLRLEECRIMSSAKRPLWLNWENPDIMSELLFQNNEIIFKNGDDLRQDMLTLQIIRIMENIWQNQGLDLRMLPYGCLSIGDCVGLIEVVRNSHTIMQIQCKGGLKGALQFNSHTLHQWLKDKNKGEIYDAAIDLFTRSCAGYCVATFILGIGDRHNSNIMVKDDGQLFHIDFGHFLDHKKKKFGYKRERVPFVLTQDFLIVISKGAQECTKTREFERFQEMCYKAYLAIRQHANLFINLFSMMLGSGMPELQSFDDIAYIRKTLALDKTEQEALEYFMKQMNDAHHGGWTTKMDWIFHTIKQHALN
PI 3-kinase alpha, sequence (Q63787 whole entry partner): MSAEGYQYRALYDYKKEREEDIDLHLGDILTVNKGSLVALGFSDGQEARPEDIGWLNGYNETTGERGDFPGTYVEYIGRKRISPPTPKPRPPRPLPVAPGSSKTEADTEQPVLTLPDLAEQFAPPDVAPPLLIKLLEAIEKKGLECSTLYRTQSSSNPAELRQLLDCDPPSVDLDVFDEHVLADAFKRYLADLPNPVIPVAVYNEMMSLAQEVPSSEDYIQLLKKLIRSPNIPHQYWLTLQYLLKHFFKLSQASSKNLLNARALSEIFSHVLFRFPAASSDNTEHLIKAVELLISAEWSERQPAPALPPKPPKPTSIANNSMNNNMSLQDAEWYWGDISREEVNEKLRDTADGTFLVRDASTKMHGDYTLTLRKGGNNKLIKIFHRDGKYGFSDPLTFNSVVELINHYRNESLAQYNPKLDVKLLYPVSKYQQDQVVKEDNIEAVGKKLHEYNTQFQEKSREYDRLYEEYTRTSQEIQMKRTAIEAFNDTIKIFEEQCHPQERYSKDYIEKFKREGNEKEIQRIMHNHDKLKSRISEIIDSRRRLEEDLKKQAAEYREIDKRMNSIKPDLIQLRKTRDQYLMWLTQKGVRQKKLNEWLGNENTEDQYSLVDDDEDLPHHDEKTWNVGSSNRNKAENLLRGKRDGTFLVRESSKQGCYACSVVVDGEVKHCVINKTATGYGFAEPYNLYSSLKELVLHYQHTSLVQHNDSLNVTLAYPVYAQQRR
Text: as §1, §2, §3, §4, §5, §6

[3] = system: IL-8-induced neutrophil shape change in human whole blood; assay: Whole blood neutrophil shape change assay (Assay L); settings: 2 nM IL-8, neutrophil shape change by flow cytometry, read-out: Assay L WBSC IC50
Experimental: Whole Blood Neutrophil Shape Change Assay (L)
A flow cytometry based method used to measure the inhibition of IL-8 (interleukin-8)-induced neutrophil shape change in human whole blood.
IL-8 was made up to 2 μM stocks in 0.1% bovine serum albumin/PBS and stored at −80° C. On the day IL-8 was diluted in PBS (phosphate buffered saline) 10 minutes before use. IL-8 was used at final concentration of 2 nM and a concentration range from […] to 200 nM for the donor dose response curve.
Assay fixative solution was prepared fresh each day from 10× concentrated CellFIX™ solution diluted 1:10 in sterile distilled water and then 1:4 with PBS. Assay fixative solution was kept on ice prior to use.
A 10× lysis buffer was prepared in advance by dissolving 20.75 g […] and 2.5 g KHCO3 in 250 ml sterile H2O. This 10× lysis buffer was filtered under sterile conditions and stored for up to two weeks at 4° C. On the day a 1× lysis solution was prepared with sterile distilled H2O and kept on ice prior to use.
The test compounds were prepared as 10 mM stock solutions in 100% DMSO and were stored at 4° C. Once in use for an assay 10 mM stock compounds were thawed and stored at RT protected from light. Compound dilutions were prepared fresh on the day. The first series of dilutions in 100% DMSO were done first thing in the morning. Only once blood had been collected and arrived in laboratory was the next set of dilutions into PBS carried out (1:10 PBS, 10% DMSO). This limited the exposure of diluted compound to plastic and made sure the exposure timing was consistent between assays. Compounds were added to the deep 96 well plates at 10× the final desired concentration (with addition of blood final [DMSO]=1%).
Table 3 illustrates the compound dilution series used in human whole blood neutrophil shape change assay.
On the day of running the assay, assay fixative buffer and 1× lysis solutions were prepared and stored on ice. Compound dilutions in 100% DMSO were prepared as described previously. Human whole blood was collected in K2 EDTA Vacutainers. Once blood was in the laboratory, compound dilutions into PBS were carried out as described previously and depicted in Table 1. 10 μl of 10× final compound concentration was added to appropriate wells of a deep 96-well plate except controls where 10 μl of 10% DMSO was added in place of compound, as outlined in the dilution series in Table 1. The outer wells of the deep well assay plate were filled with 1200 μl of sterile distilled H2O in an effort to limit edge effects (rows A1-H1, A1-A12, A12-H12). An IL-8 dose response was determined for each blood donor examined, to monitor the donor response to IL-8. At this step in assay preparation for the IL-8 dose response samples 10 μl of PBS was added to designated wells. In addition the assay window without DMSO was also assessed each day. For such samples at this step in assay preparation 10 μl of PBS was added in the place of 10% DMSO.
80 μl of whole blood was added to compound/10% DMSO/PBS and mixed once gently upon addition. Lids were placed on the 96 well plates and samples were incubated for 15 minutes at 37° C. in a water-bath.
Following the compound pre-incubation 10× final IL-8 was added to appropriate wells (10 μl of 20 nM working stock IL-8, final IL-8 concentration in blood=2 nM) and 10 μl of PBS was added to the un-stimulated controls. 10× final dose response range IL-8 was also added to designated wells (final concentration range on assay plate was 200 nM to 0.0005 nM, 1:5 serial dilution in PBS). The IL-8 and PBS were added to appropriate wells across all assay plates in the same sequence as the blood to compound addition. Once added to all assay plates, samples were mixed quickly once to ensure even distribution of IL-8. Samples were incubated for 5 minutes at 37° C. in a water-bath. Following the incubation sample plates were transferred to ice where 250 μl of chilled Assay Fixative Buffer was added promptly to all wells. […]

[4] = molecular target: PI 3-kinase beta (Homo sapiens (Human), UniProt P42338); assay: Cellular p-Akt (S473) SureFire assay, Rat-1_PI3Kbeta cells (Assay I); settings: p-AKT (Ser473) in Rat-1 cells expressing myr-HA-hp110 beta, 1 h compound; read-out: Assay I PI3Kβ IC50
PI 3-kinase beta, sequence (P42338 whole entry): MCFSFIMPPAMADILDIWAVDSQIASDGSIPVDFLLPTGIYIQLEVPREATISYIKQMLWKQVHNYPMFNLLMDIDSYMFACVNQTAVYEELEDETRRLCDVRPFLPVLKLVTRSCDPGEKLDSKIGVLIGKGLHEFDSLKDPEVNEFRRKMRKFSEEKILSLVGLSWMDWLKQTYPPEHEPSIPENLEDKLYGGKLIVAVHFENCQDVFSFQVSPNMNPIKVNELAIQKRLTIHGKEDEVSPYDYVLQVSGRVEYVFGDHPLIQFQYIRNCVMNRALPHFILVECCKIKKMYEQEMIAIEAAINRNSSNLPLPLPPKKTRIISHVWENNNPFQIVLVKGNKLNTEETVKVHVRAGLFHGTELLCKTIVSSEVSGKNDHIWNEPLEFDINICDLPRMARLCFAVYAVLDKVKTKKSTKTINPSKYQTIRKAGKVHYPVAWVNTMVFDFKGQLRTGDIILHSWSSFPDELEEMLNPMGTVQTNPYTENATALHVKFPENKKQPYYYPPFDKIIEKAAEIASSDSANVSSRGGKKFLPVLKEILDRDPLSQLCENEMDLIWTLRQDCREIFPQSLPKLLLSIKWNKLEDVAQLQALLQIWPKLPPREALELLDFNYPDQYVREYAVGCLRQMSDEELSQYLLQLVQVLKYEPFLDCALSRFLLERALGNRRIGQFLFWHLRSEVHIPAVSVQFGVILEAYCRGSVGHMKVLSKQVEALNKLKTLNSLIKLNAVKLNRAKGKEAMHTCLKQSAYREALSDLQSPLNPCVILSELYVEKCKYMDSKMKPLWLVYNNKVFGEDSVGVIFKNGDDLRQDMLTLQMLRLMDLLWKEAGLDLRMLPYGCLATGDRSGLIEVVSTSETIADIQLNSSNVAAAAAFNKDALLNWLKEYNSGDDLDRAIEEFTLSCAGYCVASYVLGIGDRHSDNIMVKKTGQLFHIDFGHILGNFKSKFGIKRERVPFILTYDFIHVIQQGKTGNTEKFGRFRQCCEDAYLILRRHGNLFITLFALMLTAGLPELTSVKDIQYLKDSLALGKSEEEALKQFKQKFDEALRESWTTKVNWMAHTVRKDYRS
PI 3-kinase beta, sequence (Q63787 whole entry partner): as the sequence (Q63787 whole entry partner) above
Text: as §1, §2, §3, §4, §5, §6

PI 3-kinase delta, sequence (O00329 whole entry): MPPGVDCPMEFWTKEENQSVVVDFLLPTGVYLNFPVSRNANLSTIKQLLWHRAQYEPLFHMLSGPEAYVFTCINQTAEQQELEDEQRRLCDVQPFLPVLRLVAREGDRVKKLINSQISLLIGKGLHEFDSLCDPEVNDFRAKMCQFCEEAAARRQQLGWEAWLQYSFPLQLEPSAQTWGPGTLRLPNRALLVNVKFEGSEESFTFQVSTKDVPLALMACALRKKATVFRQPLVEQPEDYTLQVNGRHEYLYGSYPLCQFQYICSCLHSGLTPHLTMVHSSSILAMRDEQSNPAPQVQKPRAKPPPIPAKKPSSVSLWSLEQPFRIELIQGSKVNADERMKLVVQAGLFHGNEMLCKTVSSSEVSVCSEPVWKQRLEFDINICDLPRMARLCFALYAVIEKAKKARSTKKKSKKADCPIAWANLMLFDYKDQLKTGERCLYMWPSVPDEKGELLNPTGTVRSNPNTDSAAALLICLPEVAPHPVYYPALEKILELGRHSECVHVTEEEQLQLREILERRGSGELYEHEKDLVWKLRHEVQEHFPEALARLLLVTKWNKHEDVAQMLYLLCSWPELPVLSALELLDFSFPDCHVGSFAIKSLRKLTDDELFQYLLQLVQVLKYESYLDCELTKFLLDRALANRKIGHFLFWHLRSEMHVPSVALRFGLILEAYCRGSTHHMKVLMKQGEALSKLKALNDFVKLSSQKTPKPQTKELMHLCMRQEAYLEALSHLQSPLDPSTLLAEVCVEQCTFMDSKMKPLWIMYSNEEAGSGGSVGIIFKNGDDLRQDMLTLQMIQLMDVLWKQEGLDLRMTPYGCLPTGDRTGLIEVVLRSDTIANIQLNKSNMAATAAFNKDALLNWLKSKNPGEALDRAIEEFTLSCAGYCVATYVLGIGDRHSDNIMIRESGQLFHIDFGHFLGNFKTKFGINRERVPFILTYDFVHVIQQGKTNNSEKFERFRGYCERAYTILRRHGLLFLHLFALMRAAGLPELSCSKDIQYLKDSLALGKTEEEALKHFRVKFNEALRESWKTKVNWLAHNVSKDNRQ
PI 3-kinase delta, sequence (Q63787 whole entry partner): as the sequence (Q63787 whole entry partner) above

IC50 [1] | IC50 [2] | IC50 [3] | IC50 [4] | Structure (SMILES)
515 nM | 709 nM | 374 nM | 1050 nM | Cc1ccc(S(=O)(=O)NC2CC3(CC(O)C3)C2)cc1-c1cncc(-c2cn(C)nc2C)n1 (stereo not shown) [Example 6, 3-[6-(1,3-Dimethyl-1H-pyrazol-4-yl)-pyrazin-2-yl]-N-(6-hydroxy-spiro[3.3]hept-2-yl)-4-methyl-benzenesulfonamide]
 |  | 212 nM |  | Cc1ccc(S(=O)(=O)NC[C@H]2C[C@@H](O)C2)cc1-c1cncc(-c2cn(C)nc2C)n1 [Example 7, Cis 3-[6-(1,3-Dimethyl-1H-pyrazol-4-yl)-pyrazin-2-yl]-N-(3-hydroxy-cyclobutylmethyl)-4-methyl-benzenesulfonamide]
306 nM | 1140 nM | 830 nM | 1110 nM | Cc1ccc(S(=O)(=O)N[C@H]2CC[C@H](O)CC2)cc1-c1cncc(-c2csc(CN3CCOCC3)c2)n1 [Example 12, Trans N-(4-Hydroxy-cyclohexyl)-4-methyl-3-[6-(5-morpholin-4-ylmethyl-thiophen-3-yl)-pyrazin-2-yl]-benzenesulfonamide]
 |  | 847 nM |  | Cc1cc(-c2cncc(-c3cc(S(=O)(=O)NC[C@H]4C[C@@H](O)C4)ccc3C)n2)n(C)n1 [Example 13, Cis 3-[6-(2,5-Dimethyl-2H-pyrazol-3-yl)-pyrazin-2-yl]-N-(3-hydroxy-cyclobutylmethyl)-4-methyl-benzenesulfonamide]
